Measured values reported in patent publication US20060019268A1, “Molecular markers of cisplatin resistance in cancer and uses thereof” (Research Development Foundation, priority 2004, published 2006).

How the values were obtained:
[1] = tested on: cells transfected with a metallothionein gene; details: cited from earlier work
[2] = tested on: 2008/C13*5.25 cells; assay: Colony formation (clonogenic) assay, cisplatin sensitivity; type: cell-based, human
Protocol: (§1) Cells and culture. Six human ovarian carcinoma cell lines (2008, A2780, HEY, IGROV-1, KF28 and UCI 107) were used in this study. Sublines stably resistant to DDP (2008/C13*5.25, A2780/CP70, HEY C2, IGROV-1/CP, KFr13 and UCI CPR) had been prepared from each parental line by repeated in vitro exposure to DDP as previously described (Mishima et al., 2002). All cell lines were maintained in drug-free RPMI-1640 medium (GIBCO, Inc.) with 10% fetal calf serum (GIBCO, Inc.) at 37° C. in a humidified atmosphere containing 5% CO2. The degree of resistance of each subline was determined at the time RNA was harvested using a clonogenic assay with continuous drug exposure as previously described (Mishima et al., 2002).
(§2) Cisplatin sensitivity. Colony formation assays were used to determine the sensitivity of the 6 pairs of DDP-sensitive and resistant cell lines to the cytotoxic effect of DDP.

[3] = tested on: IGROV-1 cells; assay: as above; type: cell-based, human; details: parental IGROV-1 cells, continuous drug exposure
Protocol: as §1, §2

[4] = tested on: IGROV-1/CP cells; assay: as above; type: cell-based, human
Protocol: as §1, §2

[5] = tested on: HEY C2 cells; assay: as above; type: cell-based, human
Protocol: as §1, §2

[6] = tested on: UCI 107 cells; assay: as above; type: cell-based, human; details: parental UCI 107 cells, continuous drug exposure
Protocol: as §1, §2

[7] = tested on: A2780 cells; assay: as above; type: cell-based, human; details: parental A2780 cells, continuous drug exposure
Protocol: as §1, §2

[8] = tested on: UCI CPR cells; assay: as above; type: cell-based, human
Protocol: as §1, §2

[9] = tested on: A2780/CP70 cells; assay: as above; type: cell-based, human
Protocol: as §1, §2

[10] = tested on: 2008 cells; assay: as above; type: cell-based, human; details: parental 2008 cells, continuous drug exposure
Protocol: as §1, §2

[11] = tested on: KF28 cells; assay: as above; type: cell-based, human; details: parental KF28 cells, continuous drug exposure
Protocol: as §1, §2

[12] = tested on: HEY cells; assay: as above; type: cell-based, human; details: parental HEY cells, continuous drug exposure
Protocol: as §1, §2

[13] = tested on: KFr13 cells; assay: as above; type: cell-based, human
Protocol: as §1, §2

[14] = tested on: cells transfected with the c-myc gene; details: cited from earlier work

## N.N.[Cl][Pt][Cl] [Cisplatin, cis-diamminedichloroplatinum]
[1]
  level of increased resistance: less than 5 fold
[2]; 2008/C13*5.25 vs 2008
  Fold-resistant (ratio of IC50 values): 1.6 fold
[2]; resistant 2008/C13*5.25 cells, colony formation, continuous drug exposure
  IC50: 1100 nM
[3]
  IC50: 300 nM
[4]; IGROV-1/CP vs IGROV-1
  Fold-resistant (ratio of IC50 values): 3.6 fold
[4]; resistant IGROV-1/CP cells, colony formation, continuous drug exposure
  IC50: 1080 nM
[5]; HEY C2 vs HEY
  Fold-resistant (ratio of IC50 values): 6.1 fold
[5]; resistant HEY C2 cells, colony formation, continuous drug exposure
  IC50: 4600 nM
[6]
  IC50: 1000 nM
[7]
  IC50: 210 nM
[8]; UCI CPR vs UCI 107
  Fold-resistant (ratio of IC50 values): 8 fold
[8]; resistant UCI CPR cells, colony formation, continuous drug exposure
  IC50: 8000 nM
[9]; A2780/CP70 vs A2780
  Fold-resistant (ratio of IC50 values): 11.9 fold
[9]; resistant A2780/CP70 cells, colony formation, continuous drug exposure
  IC50: 2500 nM
[10]
  IC50: 700 nM
[11]
  IC50: 180 nM
[12]
  IC50: 760 nM
[13]; KFr13 vs KF28
  Fold-resistant (ratio of IC50 values): 2.2 fold
[13]; resistant KFr13 cells, colony formation, continuous drug exposure
  IC50: 400 nM
[14]
  level of increased resistance: less than 3 fold
